Results on three compounds are retold here after publication PMC9596375 (2022).

In experiment [1] the test system is X2B2 (RNA, aptamer) GGAUACACAAGAGCGAUUGAAACUAAGUCUGUGUAUCC
In words: ITC. Conditions: 20 mM MgCl2; 10 mM Tris-HCl pH 7.5, 30 °C.

The test system of experiment [2] is X2B2-C14U-dG13 (RNA, aptamer, 2'-deoxy at G13) GGAUACACAAGAGUGAUUGAAACUAAGUCUGUGUAUCC
In words: UV-Vis absorbance shift. Particulars: 30 mM MgCl2, 140 mM KCl, 10 mM NaCl; 50 mM Tris pH 7.0; ∆λmax 10.

Experiment [3] relates to X2B2-C14U-dG13-dU18 (RNA, aptamer, 2'-deoxy at G13 and U18) GGAUACACAAGAGUGAUUGAAACUAAGUCUGUGUAUCC
In words: UV-Vis absorbance shift. Conditions: 30 mM MgCl2, 140 mM KCl, 10 mM NaCl; 50 mM Tris pH 7.0; ∆λmax 7.

Experiment [4] relates to X2B2-C14U (RNA, aptamer) GGAUACACAAGAGUGAUUGAAACUAAGUCUGUGUAUCC
In words: ITC. Particulars: 20 mM MgCl2; 10 mM Tris-HCl pH 7.5, 30 °C.

The subject of experiment [5] is X2B2-C14U-dU18 (RNA, aptamer, 2'-deoxy at U18) GGAUACACAAGAGUGAUUGAAACUAAGUCUGUGUAUCC
In words: UV-Vis absorbance shift. Particulars: 30 mM MgCl2, 140 mM KCl, 10 mM NaCl; 50 mM Tris pH 7.0; ∆λmax 7.

For experiment [6], the system named is X2B2-C14U-U24A (RNA, aptamer) GGAUACACAAGAGUGAUUGAAACAAAGUCUGUGUAUCC
In words: UV-Vis absorbance shift. Conditions: 30 mM MgCl2, 140 mM KCl, 10 mM NaCl; 50 mM Tris pH 7.0; 40 µM RNA, 40 µM FAD; ∆λmax 1.

The subject of experiment [7] is X2B2-G11U (RNA, aptamer) GGAUACACAAUAGCGAUUGAAACUAAGUCUGUGUAUCC
In words: UV-Vis absorbance shift. Conditions: 30 mM MgCl2, 140 mM KCl, 10 mM NaCl; 50 mM Tris pH 7.0; 40 µM RNA, 40 µM FAD; ∆λmax 0.

The subject of experiment [8] is X2B2-BT1 (RNA, aptamer) GGAUACAAACGAGCGAUUGAAACUAAGUCGUUGUAUCC
In words: UV-Vis absorbance shift. Particulars: 30 mM MgCl2, 140 mM KCl, 10 mM NaCl; 50 mM Tris pH 7.0; 40 µM RNA, 40 µM FAD; ∆λmax 5.

For experiment [9], the system named is X2B2-ΔC14 (RNA, aptamer) GGAUACACAAGAGGAUUGAAACUAAGUCUGUGUAUCC
In words: UV-Vis absorbance shift. Conditions: 30 mM MgCl2, 140 mM KCl, 10 mM NaCl; 50 mM Tris pH 7.0; 40 µM RNA, 40 µM FAD; ∆λmax 1.

For experiment [10], the system named is X2B2-D3 (RNA, aptamer) GGAUACAGUAGAGCGAUUGAAACUAAGUCUGUGUAUCC
In words: UV-Vis absorbance shift. Conditions: 30 mM MgCl2, 140 mM KCl, 10 mM NaCl; 50 mM Tris pH 7.0; 40 µM RNA, 40 µM FAD; ∆λmax 5.

For experiment [11], the system named is Neg (RNA, other) GGAACUGCGAUCUAGUGAGACUGACUCGUGAUCGGA
In words: UV-Vis absorbance shift. Particulars: 30 mM MgCl2, 140 mM KCl, 10 mM NaCl; 50 mM Tris pH 7.0.

Experiment [12] has as its system X2B2-D1 (RNA, aptamer) GGAUACACAAGAGCGAACGAAACUAAGUCUGUGUAUCC
In words: UV-Vis absorbance shift. Conditions: 30 mM MgCl2, 140 mM KCl, 10 mM NaCl; 50 mM Tris pH 7.0; 40 µM RNA, 40 µM FAD; ∆λmax 1.

Experiment [13] concerns X2B2-A10U (RNA, aptamer) GGAUACACAUGAGCGAUUGAAACUAAGUCUGUGUAUCC
In words: UV-Vis absorbance shift. Particulars: 30 mM MgCl2, 140 mM KCl, 10 mM NaCl; 50 mM Tris pH 7.0; 40 µM RNA, 40 µM FAD; ∆λmax 5.

Experiment [14] relates to X2B2-ΔA9 (RNA, aptamer) GGAUACACAGAGCGAUUGAAACUAAGUCUGUGUAUCC
In words: UV-Vis absorbance shift. Particulars: 30 mM MgCl2, 140 mM KCl, 10 mM NaCl; 50 mM Tris pH 7.0; 40 µM RNA, 40 µM FAD; ∆λmax 2.

Experiment [15] concerns X2B2-G13U (RNA, aptamer) GGAUACACAAGAUCGAUUGAAACUAAGUCUGUGUAUCC
In words: UV-Vis absorbance shift. Particulars: 30 mM MgCl2, 140 mM KCl, 10 mM NaCl; 50 mM Tris pH 7.0; 40 µM RNA, 40 µM FAD; ∆λmax 1.

For experiment [16], the system named is X2B2-C14U-ΔA9 (RNA, aptamer) GGAUACACAGAGUGAUUGAAACUAAGUCUGUGUAUCC
In words: UV-Vis absorbance shift. Particulars: 30 mM MgCl2, 140 mM KCl, 10 mM NaCl; 50 mM Tris pH 7.0; 40 µM RNA, 40 µM FAD; ∆λmax 8.

In experiment [17] the test system is X2B2-G19U (RNA, aptamer) GGAUACACAAGAGCGAUUUAAACUAAGUCUGUGUAUCC
In words: UV-Vis absorbance shift. Particulars: 30 mM MgCl2, 140 mM KCl, 10 mM NaCl; 50 mM Tris pH 7.0; 40 µM RNA, 40 µM FAD; ∆λmax 2.

The test system of experiment [18] is 12.29 (RNA, aptamer) GGGAAAAGCGAAUCAUACACAAGAGCGAUUGAAACUAAGUCUGUGCUAUGUUCGUUAUCGCCGGUGGGGCAUAAGGUAUUUAAUUCCAUA
In words: in-line probing. Conditions: 30 mM MgCl2; 25 mM Tris pH 8.0, 37 °C, 18 h; 500 µM FAD.

Experiment [19] deals with X2B2-A22U (RNA, aptamer) GGAUACACAAGAGCGAUUGAAUCUAAGUCUGUGUAUCC
In words: UV-Vis absorbance shift. Conditions: 30 mM MgCl2, 140 mM KCl, 10 mM NaCl; 50 mM Tris pH 7.0; 40 µM RNA, 40 µM FAD; ∆λmax 2.

In experiment [20] the test system is X2B2-C14A (RNA, aptamer) GGAUACACAAGAGAGAUUGAAACUAAGUCUGUGUAUCC
In words: UV-Vis absorbance shift. Conditions: 30 mM MgCl2, 140 mM KCl, 10 mM NaCl; 50 mM Tris pH 7.0; 40 µM RNA, 40 µM FAD; ∆λmax 5.

For experiment [21], the system named is X2B2-D2 (RNA, aptamer) GGAUACACAAGAGCACUUGAAACUAAGUCUGUGUAUCC
In words: UV-Vis absorbance shift. Conditions: 30 mM MgCl2, 140 mM KCl, 10 mM NaCl; 50 mM Tris pH 7.0; 40 µM RNA, 40 µM FAD; ∆λmax 4.

Experiment [22] deals with 12.8 (RNA, aptamer) GGGAAAAGCGAAUCAUACACAAGAGUGUGACGCACUUUAUGAUCGGAGGCCGUCAUUGUAUGGCGUGGGCAUAAGGUAUUUAAUUCCAUA
In words: in-line probing. Particulars: 30 mM MgCl2; 25 mM Tris pH 8.0, 37 °C, 18 h; 500 µM FAD.

Experiment [23] deals with X2B2-A21U (RNA, aptamer) GGAUACACAAGAGCGAUUGAUACUAAGUCUGUGUAUCC
In words: UV-Vis absorbance shift. Particulars: 30 mM MgCl2, 140 mM KCl, 10 mM NaCl; 50 mM Tris pH 7.0; 40 µM RNA, 40 µM FAD; ∆λmax 1.

Experiment [24] deals with X2B2-C4 (RNA, aptamer) GGAUAGCCAAGAGCGAUUGAAACUAAGUCUGGCUAUCC
In words: UV-Vis absorbance shift. Particulars: 30 mM MgCl2, 140 mM KCl, 10 mM NaCl; 50 mM Tris pH 7.0; 40 µM RNA, 40 µM FAD; ∆λmax 7.

Experiment [25] relates to X2B2-C1 (RNA, aptamer) GGAUACACAAGAGCGAACGAAACUAGUUCUGUGUAUCC
In words: UV-Vis absorbance shift. Particulars: 30 mM MgCl2, 140 mM KCl, 10 mM NaCl; 50 mM Tris pH 7.0; 40 µM RNA, 40 µM FAD; ∆λmax 0.

The test system of experiment [26] is X2B2-A25U (RNA, aptamer) GGAUACACAAGAGCGAUUGAAACUUAGUCUGUGUAUCC
In words: UV-Vis absorbance shift. Conditions: 30 mM MgCl2, 140 mM KCl, 10 mM NaCl; 50 mM Tris pH 7.0; 40 µM RNA, 40 µM FAD; ∆λmax 2.

Experiment [27] deals with X2B2-C23U (RNA, aptamer) GGAUACACAAGAGCGAUUGAAAUUAAGUCUGUGUAUCC
In words: UV-Vis absorbance shift. Conditions: 30 mM MgCl2, 140 mM KCl, 10 mM NaCl; 50 mM Tris pH 7.0; 40 µM RNA, 40 µM FAD; ∆λmax 2.

Experiment [28] relates to X2B2-C3 (RNA, aptamer) GGAUACAGUAGAGCGAUUGAAACUAAGUCACUGUAUCC
In words: UV-Vis absorbance shift. Conditions: 30 mM MgCl2, 140 mM KCl, 10 mM NaCl; 50 mM Tris pH 7.0; 40 µM RNA, 40 µM FAD; ∆λmax 5.

For experiment [29], the system named is X2B2-C14U-BT1 (RNA, aptamer) GGAUACAAACGAGUGAUUGAAACUAAGUCGUUGUAUCC
In words: UV-Vis absorbance shift. Particulars: 30 mM MgCl2, 140 mM KCl, 10 mM NaCl; 50 mM Tris pH 7.0; 40 µM RNA, 40 µM FAD; ∆λmax 9.

Experiment [30] relates to X2B2-U24A (RNA, aptamer) GGAUACACAAGAGCGAUUGAAACAAAGUCUGUGUAUCC
In words: UV-Vis absorbance shift. Particulars: 30 mM MgCl2, 140 mM KCl, 10 mM NaCl; 50 mM Tris pH 7.0; 40 µM RNA, 40 µM FAD; ∆λmax 6.

Experiment [31] deals with X2B2-D4 (RNA, aptamer) GGAUAGCCAAGAGCGAUUGAAACUAAGUCUGUGUAUCC
In words: UV-Vis absorbance shift. Conditions: 30 mM MgCl2, 140 mM KCl, 10 mM NaCl; 50 mM Tris pH 7.0; 40 µM RNA, 40 µM FAD; ∆λmax 6.

For experiment [32], the system named is X2B2-C14G (RNA, aptamer) GGAUACACAAGAGGGAUUGAAACUAAGUCUGUGUAUCC
In words: UV-Vis absorbance shift. Conditions: 30 mM MgCl2, 140 mM KCl, 10 mM NaCl; 50 mM Tris pH 7.0; 40 µM RNA, 40 µM FAD; ∆λmax 2.

Experiment [33] relates to X2B2-A12U (RNA, aptamer) GGAUACACAAGUGCGAUUGAAACUAAGUCUGUGUAUCC
In words: UV-Vis absorbance shift. Particulars: 30 mM MgCl2, 140 mM KCl, 10 mM NaCl; 50 mM Tris pH 7.0; 40 µM RNA, 40 µM FAD; ∆λmax 0.

Experiment [34] deals with X2B2-A20U (RNA, aptamer) GGAUACACAAGAGCGAUUGUAACUAAGUCUGUGUAUCC
In words: UV-Vis absorbance shift. Particulars: 30 mM MgCl2, 140 mM KCl, 10 mM NaCl; 50 mM Tris pH 7.0; 40 µM RNA, 40 µM FAD; ∆λmax 0.

What is called Kd is the concentration at which binding is half-saturated. A high value points to lower affinity. With `Cc1cc2nc3c(=O)[nH]c(=O)nc-3n(C[C@H](O)[C@H](O)[C@H](O)COP(=O)(O)O)c2cc1C`, the Kd in experiment [1] was 1.414 ± 0.097 µM; in experiment [4] it was 0.243 ± 0.028 µM. Also, the binding entry in experiment [2], in experiment [3] and in [5] was “yes” each time.

`Cc1cc2nc3c(=O)[nH]c(=O)nc-3n(C[C@H](O)[C@H](O)[C@H](O)COP(=O)(O)OP(=O)(O)OC[C@H]3O[C@@H](n4cnc5c(N)ncnc54)[C@H](O)[C@@H]3O)c2cc1C`: the Kd in [1] was determined as 7.244 ± 0.398 µM; in [4], 0.818 ± 0.032 µM. Moreover, the binding result in experiment [6] is recorded as “no”; in experiment [7], “no”; in experiment [8], “weak”; in experiment [9], “no”; in [10], “yes”; in experiment [11], “no”. Also, the binding entry in experiment [12] was “no”; in experiment [13], “yes”; in experiment [14], “weak”; in experiment [15], “no”; in experiment [16], “yes”; in [17] it was “weak”. For the same compound, the binding entry in experiment [18] is “yes”; in experiment [19], “weak”; in [20], “weak”; in experiment [21], “weak”; in experiment [22], “yes”; in experiment [23] it was “no”. Moreover, the binding result in experiment [24] was “yes”; in experiment [25], “no”; in [26], “weak”; in experiment [27], “weak”; in experiment [28], “yes”; in experiment [29], “yes”. The binding result in experiment [30] is “yes”; in experiment [31], “yes”; in [32], “weak”; in [33] it was “no”; in experiment [34], “no”.

In the case of `Cc1cc2nc3c(=O)[nH]c(=O)nc-3n(C[C@H](O)[C@H](O)[C@H](O)CO)c2cc1C`, the Kd in experiment [1] was 5.333 ± 0.722 µM; in experiment [4] it was 0.885 ± 0.085 µM.
